In this assay the test system is P815. As to the kind of experiment: Cytotoxicity against P815 tumor cell line. The class given is functional. The conditions noted are these: Mus musculus, read-out: ID50 (the source's name).

SMILES strings stand for the structures.

Turning to `O=C([O-])C1OC(OC[C@H]2OC(n3cc(F)c(=O)[nH]c3=O)[C@H](O)[C@@H]2O)[C@H](O)[C@@H](O)[C@@H]1O.[Na+]` (some centres not stated), the IC50 was found to be 6 µg/mL. As for `Nc1nc(=O)n(C2O[C@H](CO[C@@H]3OC(C(=O)[O-])[C@@H](O)[C@H](O)[C@H]3O)[C@@H](O)[C@H]2O)cc1F.[Na+]` (some centres not stated), the IC50 amounted to 6 µg/mL.

The record behind these values is ChEMBL document CHEMBL1121669, “Nucleosides. 114. 5'-O-Glucuronides of 5-fluorouridine and 5-fluorocytidine. Masked precursors of anticancer nucleosides” (1981).
